Columns and labels:
[1] = biological target: T1, HIV reverse transcriptase (HIV-RT) (Human immunodeficiency virus type 1 group M subtype B, UniProt P04585); assay: in vitro inhibition test against HIV reverse transcriptase; format: biochemical, HIV (AIDS virus); conditions: read-out: Inhibitory effect of HIV-RT
T1 construct: purchased Boehringer Mannheim
Experimental: Experiment 3: The in vitro inhibition test against HIV reverse transcriptase
The inhibitory activity in vitro was measured using a non-radioactive reverse transcriptase assay Kit (Boehringer Mannheim).
At first, 20 μl(40 ng) HIV-RT was added to the wells coated with streptavidin and with the addition of 20 μl, reaction mixture containing template/primer hybrid poly(A)/oligo(dT)15 and DIG-(digoxigenin)-dUTP, biotin-dUTP and TTP, 20 μl test compound was added and reacted at 37° C. for 1 hour. The control without test compound was used for the comparison of related activity. Since DNA containing nucleotide labeled with digoxigenin and biotine was prepared by the action of HIV-RT, it was combined with streptavidin coated at the bottom of the wells. After the reaction was completed, remaining impurities were removed by washing each well with 20 μl buffer solution (pH 7.0) for 30 seconds 5 times and with the addition of 200 μl anti-DIG-POD antibody, the mixture was reacted at 37° C. for 1 hour. For the removal of remaining impurities again, the reacting solution was washed with a buffer solution and with the addition of 200μl ABTS™ each, a substrate of POD(peroxidase), the solution was reacted at room temperature for 30 minutes. The absorbance was read by ELISA reader at 405 nm for the assay of reverse transcriptase activity and its inhibition activity.

[2] = biological target: T2, HBV polymerase reverse transcriptase (HBV-RT) (Hepatitis B virus genotype D subtype ayw, UniProt P03156); assay: inhibitory activity against HBV polymerase in vitro (reverse transcriptase activity); format: biochemical; conditions: read-out: Inhibitory effect of HBV-RT
T2 construct: made in house; host or cells: E. coli
Description: Experiment 1: The inhibitory activity against HBV polymerase in vitro.
Recently, the inventors of the present invention have produced a recombinant HBV polymerase that is expressed from E.coli transformant, measured its enzyme activity and filed patent applications thereof [Korean Patent Application Nos. 94-3918, 96-33998 and 96-63255].
The inventions have established a method of measuring the reverse transcriptase activity of HBV polymerase in vitro. The fundamental principle is the same as the ELISA method, and after reacting the substrate with biotin- and DIG-modified nucleotide, a method of recognizing the polymerized substrate as anti-DIG antibody with peroxidase was used. […] and 20 μ of test compound were mixed and reacted at 14~30° C. for 18~24 hours. Then, the inhibitory effect of test compound against reverse trascriptase activity in the HBV polymerase was examined, compared with the results of control tests without the test compound.

[3] = biological target: T3, RNase H of HBV polymerase (HBV-RNase H) (Hepatitis B virus ayw/France/Tiollais/1979, UniProt P03156); assay: inhibitory effects against RNase H activity of HBV polymerase; format: biochemical; conditions: read-out: Inhibitory effect of HBV-RNase H
T3 construct: amylose/maltose step implies MBP fusion
Experimental: Experiment 2: The inhibitory effects against RNase H activity of HBV polymerase.
1) Expression of the RNase H domain derived from human HBV polymerase
E.coli NM 522 was transformed by the expression vector pMRH respectively and the transformants were cultured in LB medium at 37° C., overnight. These growing cultures were diluted 1:100, inoculated into a glucose rich medium and incubated until OD600 reached 0.5. Then IPTG (isopropylthiogalactoside) was added into the medium of which the fine concentration was 0.5 mM. The above growing cultures were incubated again at 20° C. for 16 hours and the RNase H domain was expressed.
The above cultured broth was centrifuged for 10 minutes at 3,000 rpm and the cell pellet was washed with 10 ml of TNE column buffer (10 mN Tris-Cl, pH 8.0, 200 mM NaCl, 1 mM EDTA), and resuspended in 10 ml of TNE column buffer. The cells were freezed and thawed 4 times repeatedly, and then disrupted by sonication for 10 seconds 3 times. The crude extract prepared in the above process was centrifuged for 30 minutes at 13,000 rpm, 4° C. and the supernatant was separated. The above process was repeated 2 times and then the supernatant passed the amylose resin. The resin was washed by using column buffer with 50 times of resin volume, and the RNase H domain was eluted by using buffer containing 10 mM maltose.
In addition, the RNase H domain produced from the expression vector pMRH was purified by using histidine tag affinity column, because RNase H has a histidine tag at the C-terminus. The resin (Ni-NTA, QIAGEN) used in the histidine tag affinity column was activated by using sonication buffer (50 mM sodium phosphate, pH 8.0, 300 mM sodium chloride) and 4~5 ml of the activated resin was charged in the glass tube whose diameter was about 1 cm. The protein sample obtained from above description passed the resin at the 0.1 ml/ min flow rate and the column was washed by using washing buffer with the 100~200 times volume of protein sample (50 mM sodium phosphate, pH 6.0, 300 mM sodium chloride, 10% glycerol). The recombinant protein was eluted by washing the column with concentration gradient of 0.01~0.5 M imidazole.
As a result, the active RNase H domain was separated from the histidine tag affinity column at 30 mM concentration of imidazole. The purified RNase H domain was mixed with 50% glycerol for storage at -20° C. after the removal of imidazole from it and employed fol the screening of HBV inhibitors.
2) Preparation of the substrate of the RNase H enzyme
In order to identify the RNase H activity, RNA/DNA complex which can be used as a substrate of the RNase H enzyme was prepared by performing in vitro transcription with […].
3) Screening of active inhibitors against RNase H
The RNase H activity was measured by using recombinant RNase H enzyme and radiolabled RNA/DNA hybrid. In order to measure the RNase H activity, 1 μg of RNase H enzyme and test compound were mixed with buffer solution containing 40 mM Tris-Cl (pH 8.0), 4 mM magnesium chloride, 40 mM potassium chloride and 2 mM DTT. The mixture was pretreated on ice for 10 minutes. After pretreatment is completed, RNA/DNA hybrid was added to incubate at 37° C. for 3 hours. After the reaction was stopped, 7.5 M ammonium acetate in a volume of 1/2 and ethanol in a 3-fold volume were added. The above reaction mixture was incubated at -20° C. for more than 2 hours and centrifuged for 15 minutes at 4° C., 13,000 rpm. The supernatant was obtained and the radioactive signal of supernatant was measured by scintillation counter.
As a control, water was added instead of test compound and the inhibitory activity was calculated to compare with the control, when the radioactivity intensity on each test compound, was obtained.

T2 sequence (P03156 whole entry): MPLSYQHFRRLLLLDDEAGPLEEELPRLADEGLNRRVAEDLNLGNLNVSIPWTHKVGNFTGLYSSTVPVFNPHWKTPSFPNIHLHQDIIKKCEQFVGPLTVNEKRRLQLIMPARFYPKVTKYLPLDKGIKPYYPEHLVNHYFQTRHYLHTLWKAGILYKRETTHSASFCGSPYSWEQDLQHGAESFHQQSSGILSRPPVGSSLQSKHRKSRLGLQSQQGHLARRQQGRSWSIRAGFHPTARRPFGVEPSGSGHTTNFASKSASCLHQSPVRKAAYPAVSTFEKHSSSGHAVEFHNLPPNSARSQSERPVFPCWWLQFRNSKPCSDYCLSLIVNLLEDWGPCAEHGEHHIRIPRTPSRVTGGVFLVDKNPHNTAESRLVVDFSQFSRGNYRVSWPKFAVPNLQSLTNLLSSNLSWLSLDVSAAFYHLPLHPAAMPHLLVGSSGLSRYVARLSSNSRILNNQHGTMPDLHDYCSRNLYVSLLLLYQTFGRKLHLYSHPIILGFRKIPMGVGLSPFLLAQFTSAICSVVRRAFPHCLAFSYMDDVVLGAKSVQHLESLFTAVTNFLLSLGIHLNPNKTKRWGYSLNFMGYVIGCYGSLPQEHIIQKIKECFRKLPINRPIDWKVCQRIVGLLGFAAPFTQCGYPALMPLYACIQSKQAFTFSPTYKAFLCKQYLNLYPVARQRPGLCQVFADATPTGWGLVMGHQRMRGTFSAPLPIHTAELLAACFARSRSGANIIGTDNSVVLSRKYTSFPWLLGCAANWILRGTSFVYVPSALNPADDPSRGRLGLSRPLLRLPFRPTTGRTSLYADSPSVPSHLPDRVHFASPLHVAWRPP
T3 sequence (P03156 680-832): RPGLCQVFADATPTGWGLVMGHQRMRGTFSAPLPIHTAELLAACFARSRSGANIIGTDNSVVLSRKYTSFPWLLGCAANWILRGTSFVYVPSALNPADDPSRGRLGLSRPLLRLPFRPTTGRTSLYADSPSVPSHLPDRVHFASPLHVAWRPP

Question: Which results are given for `CC(C)Nc1cccnc1N1CCN(C(=O)c2ccc(C(=O)NC(CO)CO)cc2)CC1` [Compound No. 52, 1-[N-[Bis(hydroxymethyl)methyl]carbamoyl]-4-[1-[3-(isopropylamino)-2-pyridyl]piperazin-4-yl-carbonyl]benzene]?
Answer: inhibition at 0.1 µg/mL ([1]; 0.1 μg/ml): 57%; inhibition at 1 µg/mL ([1]; 1 μg/ml): 61%; inhibition at 0.1 µg/mL ([2]; 0.1 μg/ml): 52%; inhibition at 1 µg/mL ([2]; 1 μg/ml): 63%; inhibition at 0.1 µg/mL ([3]; 0.1 μg/ml): 41%; inhibition at 1 µg/mL ([3]; 1 μg/ml): 58%

— US5922871A, “Terephthalamide derivatives” (Dongwha Pharmaceutical Ind. Co., Ltd., priority 1997, dated 1999)
